Experimental data taken from US9462808B2, “Pesticidal compositions” (Syngenta Participants AG, priority 2010, dated 2016).
Like-named read-outs stand apart in the source and are kept apart here.

Experiments:
Assay type in all cases: in vivo
[1] = system: Rhopalosiphum padi (cereal aphid); test: Activity against Rhopalosiphum padi (cereal aphid) on wheat, spray with safener cloquintocet, 6 days after application (Example B1); conditions: 144 h, test compound 25 ppm, adjuvant Mero 0.1% v/v, 6 days after application, Abbott's formula, read-out: Efficacy (% mortality) against cereal aphids (Rhopalosiphum padi)
Method: One replicate consisted of 4 wheat plants per pot. […] 9 days after seeding all wheat plants (10replicates) were sprayed with respective test solutions. […] 6 days after application aphid mortality and phytotoxicity were evaluated. […] Additionally the average plant height per replicate was measured.

[2] = system: Nilaparvata lugens (brown plant hopper, BPH); test: Activity against Nilaparvata lugens (brown plant hopper, BPH) on rice, spray with safeners, 7 d after application (Example B2); conditions: 168 h, read-out: % mortality, corr.; for mortality at 25 ppm: 25 ppm AI; for mortality at 50 ppm: 50 ppm AI; for mortality at 100 ppm: 100 ppm AI; for mortality at 200 ppm: 200 ppm AI
Method: Eight replicates (pots with rice plants) were sprayed with respective test solutions. Test solutions contained the formulated test compound and the safener cloquintocet and N-(2-methoxybenzoyl)-4-[(methylaminocarbonyl)amino]-benzenesulfonamide at different ratios. 4 pots were infested with plant hopper nymphs right after application. 7d after application BPH mortality and plant safety were evaluated. […] Assessment on plant safety was done by measuring the average plant height per replicate.

[3] = system: Rhopalosiphum padi (cereal aphid); test: Activity against Rhopalosiphum padi (cereal aphid) on wheat, selected safeners at different mixture ratios, 7 DAA (Example B3); conditions: AI rate 12.5 ppm
Method: One replicate consisted of 4 wheat plants per pot. […] Test solutions contained the formulated test compounds, the adjuvant Mero (0.1% v/v), and selected safeners at different mixture ratios. 7d after application aphid mortality and was evaluated.

[4] = system: Wheat, Triticium durum (Poaceae) var. Arina; test: Reduction of phytotoxicity by safeners applied as seed treatment with compound of formula I on wheat (Example B4)
Method: Test compounds: compound P1.2 according to Table P1, as SC 050; Safener 1=cloquintocet-mexyl, as WP 25, Safener 2=mefenpyr-diethyl as WP 25, Safener 3═N-(2-methoxybenzoyl)-4-[(methylaminocarbonyl)amino]benzenesulfonamide, as SC 100. • Plants: Wheat, Triticium durum (Poaceae) var. Arina • Seed treatment: The seeds were treated by shaking the seeds with a slurry for 30 seconds in a glass flask. Treatments were 10% overdosed to compensate for substance adhering to the flask. In a first step, compound P1.2 was treated on the seeds. Afterwards the safeners were treated on the dried seeds. […] The loading rates of the safeners were 0.5, 0.1 and 0.025 mg a.i./seed. Soil: “Drench soil”, loamy sand, prefertilised with 1 g/I soil of Landor 13.1.3.21. • Procedures: 9-cm pots were filled with 330 ml of Drench soil loamy sand and the seeds were placed into the soil in about 5 mm beneath the soil surface. • Conditions: During the growth period the plants were kept in a randomised fashion in a greenhouse chamber at 25° C. during daytime, 23° C. during night, 50-60% rH, a 14-hour photoperiod and artificial lighting when natural light fell below 20 kLux. During the exposure the assay was kept at 22° C. • Assessments: 14 days after emergence, the phytotoxicity was recorded.

CCOC(=O)OC1=C(c2c(C)cc(C)cc2C)C(=O)N(C)C12CCN(OC)CC2 [Compound P1.2, Carbonic acid ethyl ester 8-methoxy-1-methyl-2-oxo-3-(2,4,6-trimethyl-phenyl)-1,8-diaza-spiro[4.5]dec-3-en-4-yl ester]
mortality at 25 ppm ([1]; ratio AI:safener cell blank (no safener), wheat): 97.4% | mortality at 25 ppm ([1]; safener cloquintocet, ratio AI:safener 1:1, wheat): 93.4% | mortality at 25 ppm ([1]; safener cloquintocet, ratio AI:safener 1:2, wheat): 94.4% | mortality at 12.5 ppm ([2]; 12.5 ppm AI, Safener 2, ratio AI:safener 0.9:1, 7 d after application): 0% | mortality at 25 ppm ([2]; Cloquintocet, ratio AI:safener 1.9:1, 7 d after application): 30% | mortality at 25 ppm ([2]; Safener 2, ratio AI:safener 1.9:1, 7 d after application): 3% | mortality at 50 ppm ([2]; Cloquintocet, ratio AI:safener 1.25:1, 7 d after application): 57% | mortality at 50 ppm ([2]; Safener 2, ratio AI:safener 1.25:1, 7 d after application): 42% | mortality at 100 ppm ([2]; Cloquintocet, ratio AI:safener 7.5:1, 7 d after application): 78% | mortality at 100 ppm ([2]; Safener 2, ratio AI:safener 7.5:1, 7 d after application): 68% | mortality at 200 ppm ([2]; Cloquintocet, ratio AI:safener 15:1, 7 d after application): 93% | mortality at 200 ppm ([2]; Safener 2, ratio AI:safener 15:1, 7 d after application): 85% | Efficacy (% mortality) against cereal aphids (Rhopalosiphum padi) 7DAA ([3]; + Cloquintocet-mexyl, ratio AI:safener 1:2): 94% | Efficacy (% mortality) against cereal aphids (Rhopalosiphum padi) 7DAA ([3]; + Cloquintocet-mexyl, ratio AI:safener 1:4): 91% | Efficacy (% mortality) against cereal aphids (Rhopalosiphum padi) 7DAA ([3]; + Cloquintocet-mexyl, ratio AI:safener 1:8): 91% | Efficacy (% mortality) against cereal aphids (Rhopalosiphum padi) 7DAA ([3]; + Mefenpyr-diethyl, ratio AI:safener 1:2): 97% | Efficacy (% mortality) against cereal aphids (Rhopalosiphum padi) 7DAA ([3]; + Mefenpyr-diethyl, ratio AI:safener 1:4): 92% | Efficacy (% mortality) against cereal aphids (Rhopalosiphum padi) 7DAA ([3]; + Mefenpyr-diethyl, ratio AI:safener 1:8): 92% | Efficacy (% mortality) against cereal aphids (Rhopalosiphum padi) 7DAA ([3]; + Safener 2 (N-(2-methoxybenzoyl)-4-[(methylaminocarbonyl)amino]benzenesulfonamide), ratio AI:safener 1:2): 97% | Efficacy (% mortality) against cereal aphids (Rhopalosiphum padi) 7DAA ([3]; + Safener 2 (N-(2-methoxybenzoyl)-4-[(methylaminocarbonyl)amino]benzenesulfonamide), ratio AI:safener 1:4): 95% | Efficacy (% mortality) against cereal aphids (Rhopalosiphum padi) 7DAA ([3]; + Safener 2 (N-(2-methoxybenzoyl)-4-[(methylaminocarbonyl)amino]benzenesulfonamide), ratio AI:safener 1:8): 97% | Efficacy (% mortality) against cereal aphids (Rhopalosiphum padi) 7DAA ([3]; no safener, spray on wheat, Abbott's formula): 98% | Phytotoxicity after seed treatment ([4]; P1.2 0.1 mg a.i./seed with safeners (cloquintocet-mexyl, mefenpyr-diethyl, N-(2-methoxybenzoyl)-4-[(methylaminocarbonyl)amino]benzenesulfonamide), wheat, 14 days after emergence): safeners protect the plants from the adverse effects | Phytotoxicity (%) of compound P1.2 on wheat, control without safener ([4]; seed treatment, 1 mg compound P1.2, without safener): Control: application of 1 mg compound P1.2. without safener results in 64.3% phyotoxicity
